Results on 21 molecules are retold here after patent US8710065B2, “Tricyclic inhibitors of kinases” (AbbVie Inc., priority 2011, dated 2014).

The target in this experiment is T1, GST-tagged-Wee1 kinase (Homo sapiens, UniProt P30291).
T1 construct: purchased Carnabio (Carna Biosciences) 05-177
T1 sequence (P30291 whole entry): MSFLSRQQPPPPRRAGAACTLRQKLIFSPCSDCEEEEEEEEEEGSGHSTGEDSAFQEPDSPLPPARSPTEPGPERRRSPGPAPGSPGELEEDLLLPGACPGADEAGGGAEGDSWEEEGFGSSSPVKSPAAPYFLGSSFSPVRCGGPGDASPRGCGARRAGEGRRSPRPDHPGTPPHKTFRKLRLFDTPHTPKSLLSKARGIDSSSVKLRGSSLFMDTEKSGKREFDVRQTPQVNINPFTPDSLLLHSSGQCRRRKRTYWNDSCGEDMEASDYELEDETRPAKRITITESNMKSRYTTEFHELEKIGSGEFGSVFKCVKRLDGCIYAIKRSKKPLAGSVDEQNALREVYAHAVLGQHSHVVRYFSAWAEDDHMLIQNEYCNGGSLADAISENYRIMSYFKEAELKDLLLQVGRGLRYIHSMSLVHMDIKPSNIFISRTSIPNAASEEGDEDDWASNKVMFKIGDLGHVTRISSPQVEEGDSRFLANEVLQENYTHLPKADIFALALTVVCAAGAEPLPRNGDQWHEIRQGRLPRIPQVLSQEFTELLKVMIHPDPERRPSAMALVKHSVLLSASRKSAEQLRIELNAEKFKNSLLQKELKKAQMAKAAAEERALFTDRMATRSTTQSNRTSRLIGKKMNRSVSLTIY
The experiment is described as follows: Wee1 time-resolved fluorescence equilibrium binding assay (displacement of Oregon Green-labeled ATP-competitive kinase probe). Particulars: read-out: Wee-1 inhibition (Ki). As for the experimental part:
Wee1 kinase was assayed using a time-resolved fluorescence equilibrium binding assay monitoring displacement of a rapidly reversible Oregon Green-labeled ATP-competitive kinase probe (N-(2-(2-(2-(4-(4-(5-chloro-4-(2-(1-hydroxycyclobutyl)thiazol-5-yl)-1H-pyrrolo[2,3-b]pyridin-2-yl)phenyl)piperazin-1-yl)ethoxy)ethoxy)ethyl)-2′,7′-difluoro-3′,6′-dihydroxy-3-oxo-3H-spiro[isobenzofuran-1,9′-xanthene]-5-carboxamide) by competitive Wee1 inhibitors.
Table 1 depicts enzyme inhibition data (Ki) for exemplary compounds.
With `CN1CCCc2cc(Nc3ncc4c(=O)n(-c5ccccc5Cl)c5nccn5c4n3)ccc21` [Example 92, 6-(2-chlorophenyl)-2-[(1-methyl-1,2,3,4-tetrahydroquinolin-6-yl)amino]imidazo[1,2-a]pyrimido[5,4-e]pyrimidin-5(6H)-one], the Ki was below 10 nM.

For the molecule `CCN(CC)C1Cc2ccc(Nc3ncc4c(=O)n(-c5c(F)cccc5Cl)c5nccn5c4n3)cc2C1` (stereo not drawn) [Example 226, 6-(2-chloro-6-fluorophenyl)-2-{[2-(diethylamino)-2,3-dihydro-1H-inden-5-yl]amino}imidazo[1,2-a]pyrimido[5,4-e]pyrimidin-5(6H)-one], the Ki was below 10 nM. With `CN(C)C1CCN(C(=O)c2ccc(Nc3ncc4c(=O)n(-c5c(Cl)cccc5Cl)c5nccn5c4n3)cc2)CC1` [Example 237, 6-(2,6-dichlorophenyl)-2-[(4-{[4-(dimethylamino)piperidin-1-yl]carbonyl}phenyl)amino]imidazo[1,2-a]pyrimido[5,4-e]pyrimidin-5(6H)-one] the figure was below 10 nM; with `O=c1c2cnc(Nc3ccc4c(c3)CCN(C3CC3)CC4)nc2n2ccnc2n1-c1ccccc1Cl` [Example 184, 6-(2-chlorophenyl)-2-[(3-cyclopropyl-2,3,4,5-tetrahydro-1H-3-benzazepin-7-yl)amino]imidazo[1,2-a]pyrimido[5,4-e]pyrimidin-5(6H)-one], below 10 nM; with `O=c1c2cnc(Nc3ccc(N4CCC(N5CCCC5)CC4)cc3)nc2n2ccnc2n1-c1ccccc1Cl` [Example 190, 6-(2-chlorophenyl)-2-({4-[4-(pyrrolidin-1-yl)piperidin-1-yl]phenyl}amino)imidazo[1,2-a]pyrimido[5,4-e]pyrimidin-5(6H)-one], below 10 nM. Under `CC(=O)N1Cc2cc(Nc3ncc4c(=O)n(-c5c(F)cccc5Cl)c5nccn5c4n3)ccc2C2(CC2)C1` [Example 241, 2-[(2′-acetyl-2′,3′-dihydro-1′H-spiro[cyclopropane-1,4′-isoquinolin]-7′-yl)amino]-6-(2-chloro-6-fluorophenyl)imidazo[1,2-a]pyrimido[5,4-e]pyrimidin-5(6H)-one] stands below 10 nM. Under `O=c1c2cnc(Nc3ccc(N4CCCC(C(F)(F)F)C4)cc3)nc2n2ccnc2n1-c1ccccc1Cl` (stereo not drawn) [Example 231, 6-(2-chlorophenyl)-2-({4-[3-(trifluoromethyl)piperidin-1-yl]phenyl}amino)imidazo[1,2-a]pyrimido[5,4-e]pyrimidin-5(6H)-one] stands 10 to 100 nM; under `O=c1c2cnc(Nc3ccc(C4CCCCC4)cc3)nc2n2ccnc2n1-c1c(Cl)cccc1Cl` [Example 167, 2-[(4-cyclohexylphenyl)amino]-6-(2,6-dichlorophenyl)imidazo[1,2-a]pyrimido[5,4-e]pyrimidin-5(6H)-one], 10 to 100 nM; under `CN1C[C@H]2CCN(c3ccc(Nc4ncc5c(=O)n(-c6c(Cl)cccc6Cl)c6nccn6c5n4)cc3)[C@H]2C1` [Example 326, 6-(2,6-dichlorophenyl)-2-({4-[(3aR,6aR)-5-methylhexahydropyrrolo[3,4-b]pyrrol-1(2H)-yl]phenyl}amino)imidazo[1,2-a]pyrimido[5,4-e]pyrimidin-5(6H)-one], below 10 nM. Turning to `Cc1cccc(C)c1-n1c(=O)c2cnc(Nc3ccc4c(c3)CN(C)CC43CC3)nc2n2ccnc12` [Example 62, 6-(2,6-dimethylphenyl)-2-[(2′-methyl-2′,3′-dihydro-1′H-spiro[cyclopropane-1,4′-isoquinolin]-7′-yl)amino]imidazo[1,2-a]pyrimido[5,4-e]pyrimidin-5(6H)-one], the inhibition constant Ki is below 10 nM. Under `CN(C)[C@@H]1CCN(c2ccc(Nc3ncc4c(=O)n(-c5ccccc5Cl)c5nccn5c4n3)cc2)C1` [Example 230, 6-(2-chlorophenyl)-2-({4-[(3R)-3-(dimethylamino)pyrrolidin-1-yl]phenyl}amino)imidazo[1,2-a]pyrimido[5,4-e]pyrimidin-5(6H)-one] stands below 10 nM; under `COCCN(CCOC)c1ccc(Nc2ncc3c(=O)n(-c4ccccc4Cl)c4nccn4c3n2)cc1` [Example 183, 2-({4-[bis(2-methoxyethyl)amino]phenyl}amino)-6-(2-chlorophenyl)imidazo[1,2-a]pyrimido[5,4-e]pyrimidin-5(6H)-one], 10 to 100 nM. With `O=c1c2cnc(Nc3ccc4c(c3)CNCC43CC3)nc2n2ccnc2n1-c1cccc(O)c1Cl` [Example 278, 6-(2-chloro-3-hydroxyphenyl)-2-(2′,3′-dihydro-1′H-spiro[cyclopropane-1,4′-isoquinolin]-7′-ylamino)imidazo[1,2-a]pyrimido[5,4-e]pyrimidin-5(6H)-one] the figure was below 10 nM; with `O=C(Nc1ccncc1)c1ccc(Nc2ncc3c(=O)n(-c4ccccc4Cl)c4nccn4c3n2)cc1` [Example 49, 4-{[6-(2-chlorophenyl)-5-oxo-5,6-dihydroimidazo[1,2-a]pyrimido[5,4-e]pyrimidin-2-yl]amino}-N-(pyridin-4-yl)benzamide], 10 to 100 nM. Turning to `CN(C)C1Cc2ccc(Nc3ncc4c(=O)n(-c5c(Cl)cc(F)cc5Cl)c5nccn5c4n3)cc2C1` (stereo not drawn) [Example 126, 6-(2,6-dichloro-4-fluorophenyl)-2-{[2-(dimethylamino)-2,3-dihydro-1H-inden-5-yl]amino}imidazo[1,2-a]pyrimido[5,4-e]pyrimidin-5(6H)-one], the Ki is below 10 nM.

As to `Cc1cc(Nc2ncc3c(=O)n(-c4ccccc4Cl)c4nccn4c3n2)ccc1O` [Example 102, 6-(2-chlorophenyl)-2-[(4-hydroxy-3-methylphenyl)amino]imidazo[1,2-a]pyrimido[5,4-e]pyrimidin-5(6H)-one], the inhibition constant (Ki) is below 10 nM. Under `O=c1c2cnc(Nc3ccc(NCCCN4CCOCC4)cc3)nc2n2ccnc2n1-c1ccccc1Cl` [Example 189, 6-(2-chlorophenyl)-2-[(4-{[3-(morpholin-4-yl)propyl]amino}phenyl)amino]imidazo[1,2-a]pyrimido[5,4-e]pyrimidin-5(6H)-one] stands 10 to 100 nM; under `O=c1c2cnc(Nc3cnc4c(c3)CNCC4)nc2n2ccnc2n1-c1c(F)cccc1Cl` [Example 277, 6-(2-chloro-6-fluorophenyl)-2-(5,6,7,8-tetrahydro-1,6-naphthyridin-3-ylamino)imidazo[1,2-a]pyrimido[5,4-e]pyrimidin-5(6H)-one], 10 to 100 nM; under `O=c1c2cnc(Nc3ccc(-c4cn[nH]c4)cc3)nc2n2ccnc2n1-c1ccccc1Cl` [Example 43, 6-(2-chlorophenyl)-2-{[4-(1H-pyrazol-4-yl)phenyl]amino}imidazo[1,2-a]pyrimido[5,4-e]pyrimidin-5(6H)-one], 10 to 100 nM.

With `CC1(C)CN(S(C)(=O)=O)Cc2cc(Nc3ncc4c(=O)n(-c5c(Cl)cccc5Cl)c5nccn5c4n3)ccc21` [Example 319, 6-(2,6-dichlorophenyl)-2-{[4,4-dimethyl-2-(methylsulfonyl)-1,2,3,4-tetrahydroisoquinolin-7-yl]amino}imidazo[1,2-a]pyrimido[5,4-e]pyrimidin-5(6H)-one], the Ki was below 10 nM. Under `O=c1c2cnc(Nc3ccc(N4CCN5CCCC5C4)cc3)nc2n2ccnc2n1-c1ccccc1Cl` (stereo not drawn) [Example 101, 6-(2-chlorophenyl)-2-{[4-(hexahydropyrrolo[1,2-a]pyrazin-2(1H)-yl)phenyl]amino}imidazo[1,2-a]pyrimido[5,4-e]pyrimidin-5(6H)-one] stands below 10 nM.
